Source: US4758557A, “Cephalosporin derivatives and bactericides containing the same” (Meiji Seika Kaisha, Ltd., priority 1985, dated 1988)
In brackets after ≈: the same amount, converted by molar mass. Where two headings read alike, the source gives them in different places.

Legend:
Test in all cases: MIC in agar plate culture-dilution assay
Type in all cases: cell-based
[1] = test system: Bacillus subtilis ATCC 6633; conditions: ATCC6633
Text: (§1) The compounds of the formula (I) and salts thereof of the present invention are new, and have high and broad antibacterial activity capable of inhibiting the growth of pathogenic microorganisms of a broad range including gram-positive and gram-negative bacteria. In order to show the usability of the compounds of the formula (I), the antibacterial activity of some typical compounds of the formula (I) was actually measured, and the results are given in the following Table-1.
(§2) MIC in agar plate culture-dilution assay (Y/ml)

[2] = test system: Citrobacter freundii GN-346; conditions: GN346
Text: as §1, §2

[3] = test system: Enterobacter cloacae GN-7471; conditions: GN7471
Text: as §1, §2

[4] = test system: Escherichia coli NIHJ JC-2; conditions: NIHJJC2
Text: as §1, §2

[5] = test system: Klebsiella pneumoniae GN-69; conditions: GN69
Text: as §1, §2

Proteus rettgeri GN-624 = conditions: Providencia rettgeri, GN624
Text: as §1, §2

Proteus vulgaris GN-76 = conditions: GN76
Text: as §1, §2

[6] = test system: Pseudomonas aeruginosa E-2; conditions: E2
Text: as §1, §2

[7] = test system: Pseudomonas aeruginosa IAM-1007; conditions: IAM1007
Text: as §1, §2

[8] = test system: Pseudomonas aeruginosa M-0148; conditions: M0148
Text: as §1, §2

[9] = test system: Pseudomonas maltophilia M-0627; conditions: Stenotrophomonas maltophilia, M0627
Text: as §1, §2

[10] = test system: Serratia marcescens No. 1
Text: as §1, §2

[11] = test system: Staphylococcus aureus 209P JC-1
Text: as §1, §2

[12] = test system: Staphylococcus aureus Smith (1)
Text: as §1, §2

[13] = Bacillus subtilis ATCC 6633, agar plate culture-dilution, read-out: MIC
[14] = Citrobacter freundii GN-346, agar plate culture-dilution, read-out: MIC
[15] = Enterobacter cloacae GN-7471, agar plate culture-dilution, read-out: MIC
[16] = Klebsiella pneumoniae GN-69, agar plate culture-dilution, read-out: MIC
[17] = Proteus rettgeri GN-624, agar plate culture-dilution, read-out: MIC
[18] = Proteus vulgaris GN-76, agar plate culture-dilution, read-out: MIC
[19] = Pseudomonas aeruginosa E-2, agar plate culture-dilution, read-out: MIC
[20] = Pseudomonas aeruginosa IAM-1007, agar plate culture-dilution, read-out: MIC
[21] = Pseudomonas aeruginosa M-0148, agar plate culture-dilution, read-out: MIC
[22] = Serratia marcescens No. 1, agar plate culture-dilution, read-out: MIC
[23] = Staphylococcus aureus 209P JC-1, agar plate culture-dilution, read-out: MIC
[24] = Staphylococcus aureus Smith (1), agar plate culture-dilution, read-out: MIC

SMILES | MIC [4] [µg/mL] | MIC [1, 13] [µg/mL] | MIC [2, 14] [µg/mL] | MIC [3, 15] [µg/mL] | MIC [5, 16] [µg/mL] | MIC (Proteus rettgeri GN-624; [17]) [µg/mL] | MIC (Proteus vulgaris GN-76; [18]) [µg/mL] | MIC [6, 19] [µg/mL] | MIC [7, 20] [µg/mL] | MIC [8, 21] [µg/mL] | MIC [10, 22] [µg/mL] | MIC [11, 23] [µg/mL] | MIC [12, 24] [µg/mL] | other results
CC(C)(O/N=C(\C(=O)N[C@@H]1C(=O)N2C(C(=O)[O-])=C(C[n+]3ccccc3)CS[C@H]12)c1csc(N)n1)C(=O)O [B, ceftazidime, reference compound] | 0.2 (≈ 0.366 µM) |  |  |  |  |  |  |  |  |  |  |  |  | MIC ([1]; Bacillus subtilis): 6.25 µg/mL (≈ 11.4 µM); MIC ([2]; Citrobacter freundii): 0.78 µg/mL (≈ 1.43 µM); MIC ([3]; Enterobacter cloacae): 3.13 µg/mL (≈ 5.73 µM); MIC ([5]; Klebsiella pneumoniae): 0.1 µg/mL (≈ 0.183 µM); MIC (Proteus rettgeri GN-624): 0.39 µg/mL (≈ 0.714 µM); MIC (Proteus vulgaris GN-76; Proteus vulgaris): 0.05 µg/mL (≈ 0.0915 µM); MIC ([6]; Pseudomonas aeruginosa): 1.56 µg/mL (≈ 2.85 µM); MIC ([7]; Pseudomonas aeruginosa): 1.56 µg/mL (≈ 2.85 µM); MIC ([8]; Pseudomonas aeruginosa): 3.13 µg/mL (≈ 5.73 µM); MIC [9]: 50 µg/mL (≈ 91.5 µM); MIC ([10]; Serratia marcescens, NO.1): < 0.025 µg/mL; MIC ([11]; Staphylococcus aureus, 209P): 3.13 µg/mL (≈ 5.73 µM); MIC ([12]; Staphylococcus aureus): 3.13 µg/mL (≈ 5.73 µM)
C[n+]1ccc(SCC2=C(C(=O)[O-])N3C(=O)[C@@H](NC(=O)C(NC(=O)c4cc(=O)c(O)cn4O)c4csc(N)n4)[C@H]3SC2)c2c1CCC2 (stereo partly drawn) [Example 14, (6R,7R)7-[(RS)2-(2-Aminothiazol-4yl)-2-(1,5-dihydroxy-4-pyridone-2-carboxamido)acetamido]-3-(2,3-cyclopenteno-1-methylpyridinium-4-yl)-thiomethyl-ceph-3-em-4-carboxylate] | 0.05 (≈ 0.0729 µM) | 6.25 (≈ 9.11 µM) | 0.1 (≈ 0.146 µM) | 0.78 (≈ 1.14 µM) | < 0.025 | 0.1 (≈ 0.146 µM) | 0.1 (≈ 0.146 µM) | < 0.025 | < 0.025 | 0.2 (≈ 0.292 µM) | 0.1 (≈ 0.146 µM) | 1.56 (≈ 2.27 µM) | 1.56 (≈ 2.27 µM) | MIC ([9]; Pseudomonas maltophilia M-0627, agar plate culture-dilution, read-out: MIC): 6.25 µg/mL (≈ 9.11 µM)
C[n+]1cccc(SCC2=C(C(=O)[O-])N3C(=O)[C@@H](NC(=O)C(NC(=O)c4cc(=O)c(O)cn4O)c4csc(N)n4)[C@H]3SC2)c1 (stereo partly drawn) [Example 4, (6R,7R)7-[(RS)2-(2-Aminothiazol-4-yl)-2-(1,5-dihydroxy-4-pyridone-2-carboxamido)acetamido]-3-(1-methylpyridinium-3-yl)thiomethyl-ceph-3-em-4-carboxylate] | 0.1 (≈ 0.155 µM) | 12.5 (≈ 19.4 µM) | 6.25 (≈ 9.68 µM) | 3.13 (≈ 4.85 µM) | 0.1 (≈ 0.155 µM) | 0.2 (≈ 0.31 µM) | 0.39 (≈ 0.604 µM) | 0.1 (≈ 0.155 µM) | 0.2 (≈ 0.31 µM) | 0.39 (≈ 0.604 µM) | 0.2 (≈ 0.31 µM) | 3.13 (≈ 4.85 µM) | 3.13 (≈ 4.85 µM) | 

Continued by falling MIC [4], values first:

MIC [4] [µg/mL] | MIC [1, 13] [µg/mL] | MIC [2, 14] [µg/mL] | MIC [3, 15] [µg/mL] | MIC [5, 16] [µg/mL] | MIC (Proteus rettgeri GN-624; [17]) [µg/mL] | MIC (Proteus vulgaris GN-76; [18]) [µg/mL] | MIC [6, 19] [µg/mL] | MIC [7, 20] [µg/mL] | MIC [8, 21] [µg/mL] | MIC [10, 22] [µg/mL] | MIC [11, 23] [µg/mL] | MIC [12, 24] [µg/mL] | SMILES | other results
0.05 (≈ 0.0726 µM) | 3.13 (≈ 4.54 µM) | 1.56 (≈ 2.27 µM) | 1.56 (≈ 2.27 µM) | 0.1 (≈ 0.145 µM) | 0.2 (≈ 0.29 µM) | 0.2 (≈ 0.29 µM) | 0.05 (≈ 0.0726 µM) | 0.1 (≈ 0.145 µM) | 0.78 (≈ 1.13 µM) | 0.2 (≈ 0.29 µM) | 1.56 (≈ 2.27 µM) | 3.13 (≈ 4.54 µM) | NC(=O)C[n+]1ccc(SCC2=C(C(=O)[O-])N3C(=O)[C@@H](NC(=O)C(NC(=O)c4cc(=O)c(O)cn4O)c4csc(N)n4)[C@H]3SC2)cc1 (stereo partly drawn) [Example 6, (6R,7R)7-[(RS)2-(2-Aminothiazol-4-yl)-2-(1,5-dihydroxy-4-pyridone-2-carboxamido)acetamido]-3-(1-carbamoylmethylpyridinium-4-yl)thiomethyl-ceph-3-em-4-carboxylate] | 
0.05 (≈ 0.0744 µM) | 3.13 (≈ 4.66 µM) | 0.78 (≈ 1.16 µM) | 1.56 (≈ 2.32 µM) | 0.05 (≈ 0.0744 µM) | 0.1 (≈ 0.149 µM) | 0.2 (≈ 0.298 µM) | 0.1 (≈ 0.149 µM) | 0.2 (≈ 0.298 µM) | 1.56 (≈ 2.32 µM) | 0.2 (≈ 0.298 µM) | 1.56 (≈ 2.32 µM) | 1.56 (≈ 2.32 µM) | Nc1nc(C(NC(=O)c2cc(=O)c(O)cn2O)C(=O)N[C@@H]2C(=O)N3C(C(=O)[O-])=C(CSc4cc[n+](C5CC5)cc4)CS[C@H]23)cs1 (stereo partly drawn) [Example 8, (6R,7R)7-[(RS)2-(2-Aminothiazol-4-yl)-2-(1,5-dihydroxy-4-pyridone-2-carboxamido)acetamido]-3-(1-cycloproylpyridinium-4-yl)thiomethyl-ceph-3-em-4-carboxylate] | 
